Measured values: patent publication US11638712B2, “Bis(acetamidophenyl) guanidinophenylethylphosphonates for use in the prevention and/or treatment of PAR-related diseases” (Universiteit Antwerpen, priority 2016, dated 2023)
Like-named read-outs stand apart in the source and are kept apart here.

Experiments:
[1] = target: T1, FXIIa (Homo sapiens, UniProt P00748); experiment: in vitro serine protease inhibition profile: FXIIa; type: biochemical
T1 construct: panel of serine proteases: uPA, tPA, thrombin, plasmin, FXIIa

[2] = target: T2, plasmin (Homo sapiens, UniProt P00747); experiment: in vitro serine protease inhibition profile: plasmin; type: biochemical
T2 construct: panel of serine proteases: uPA, tPA, thrombin, plasmin, FXIIa

[3] = target: T3, KLK8 (Homo sapiens, UniProt O60259); experiment: in vitro serine protease inhibition profile: KLK8; type: biochemical
T3 sequence (O60259 33-260): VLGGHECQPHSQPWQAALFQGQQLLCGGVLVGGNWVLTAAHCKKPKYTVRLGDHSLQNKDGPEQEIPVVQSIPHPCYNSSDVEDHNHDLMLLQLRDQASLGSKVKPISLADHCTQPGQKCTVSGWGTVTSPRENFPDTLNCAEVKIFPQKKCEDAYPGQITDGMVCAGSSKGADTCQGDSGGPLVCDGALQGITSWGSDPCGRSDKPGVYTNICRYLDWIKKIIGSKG

[4] = target: KLK1 (Homo sapiens, UniProt P06870); experiment: in vitro serine protease inhibition profile: KLK1; type: biochemical
[5] = target: tryptase (Homo sapiens, UniProt Q15661); experiment: in vitro serine protease inhibition profile: tryptase; type: biochemical
[6] = target: KLK2 (Homo sapiens, UniProt P20151); experiment: in vitro serine protease inhibition profile: KLK2; type: biochemical
[7] = target: T4, cathepsinG (Homo sapiens, UniProt P08311); experiment: in vitro serine protease inhibition profile: cathepsinG; type: biochemical
T4 sequence (P08311 21-244): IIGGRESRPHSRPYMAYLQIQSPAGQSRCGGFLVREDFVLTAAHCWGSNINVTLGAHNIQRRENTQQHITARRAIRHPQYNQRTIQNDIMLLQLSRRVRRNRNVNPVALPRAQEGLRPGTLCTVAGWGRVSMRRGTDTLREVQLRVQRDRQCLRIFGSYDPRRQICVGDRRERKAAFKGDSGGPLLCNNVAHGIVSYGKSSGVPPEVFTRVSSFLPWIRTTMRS

[8] = target: T5, matriptase (Homo sapiens, UniProt Q9Y5Y6); experiment: in vitro serine protease inhibition profile: matriptase; type: biochemical
T5 sequence (Q9Y5Y6 1-855): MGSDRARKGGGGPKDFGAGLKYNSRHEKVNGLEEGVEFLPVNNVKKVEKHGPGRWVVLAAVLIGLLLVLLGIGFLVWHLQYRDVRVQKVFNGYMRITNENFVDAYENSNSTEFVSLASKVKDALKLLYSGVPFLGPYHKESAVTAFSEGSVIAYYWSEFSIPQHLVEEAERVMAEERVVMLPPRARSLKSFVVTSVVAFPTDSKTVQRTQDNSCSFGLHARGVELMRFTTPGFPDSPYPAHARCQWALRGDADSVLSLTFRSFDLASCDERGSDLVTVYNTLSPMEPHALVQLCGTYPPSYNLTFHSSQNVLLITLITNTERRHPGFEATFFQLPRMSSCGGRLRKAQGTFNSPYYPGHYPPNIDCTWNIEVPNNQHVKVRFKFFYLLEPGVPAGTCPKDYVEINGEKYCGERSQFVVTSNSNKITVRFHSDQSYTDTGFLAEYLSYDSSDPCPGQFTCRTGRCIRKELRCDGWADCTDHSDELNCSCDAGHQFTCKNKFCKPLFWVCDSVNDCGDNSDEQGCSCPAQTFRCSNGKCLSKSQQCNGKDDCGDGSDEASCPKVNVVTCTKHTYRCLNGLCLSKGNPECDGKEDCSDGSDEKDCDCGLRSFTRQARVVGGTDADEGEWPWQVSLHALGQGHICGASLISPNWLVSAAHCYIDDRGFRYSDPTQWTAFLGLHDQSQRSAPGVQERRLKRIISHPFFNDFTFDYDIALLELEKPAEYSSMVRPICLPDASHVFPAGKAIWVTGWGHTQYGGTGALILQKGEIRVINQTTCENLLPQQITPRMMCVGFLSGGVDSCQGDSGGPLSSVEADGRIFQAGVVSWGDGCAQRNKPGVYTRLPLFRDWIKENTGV

[9] = target: KLK4 (Homo sapiens, UniProt Q9Y5K2); experiment: in vitro serine protease inhibition profile: KLK4; type: biochemical
[10] = target: T6, HNE (Homo sapiens, UniProt P08246); experiment: in vitro serine protease inhibition profile: HNE; type: biochemical
T6 sequence (P08246 30-267): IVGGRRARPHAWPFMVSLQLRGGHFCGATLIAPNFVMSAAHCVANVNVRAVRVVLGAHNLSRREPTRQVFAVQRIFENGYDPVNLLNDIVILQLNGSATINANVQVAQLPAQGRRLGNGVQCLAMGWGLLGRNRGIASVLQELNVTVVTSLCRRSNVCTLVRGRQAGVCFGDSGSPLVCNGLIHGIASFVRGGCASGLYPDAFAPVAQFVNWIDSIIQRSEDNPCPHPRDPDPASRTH

[11] = target: tPA (Homo sapiens, UniProt P00750); experiment: in vitro serine protease inhibition profile: tPA; type: biochemical
[12] = target: uPA (Homo sapiens, UniProt P00749); experiment: in vitro serine protease inhibition profile: uPA; type: biochemical; conditions: read-out: IC50 uPA
[13] = target: T7, thrombin (Homo sapiens, UniProt P00734); experiment: in vitro serine protease inhibition profile: thrombin; type: biochemical; conditions: read-out: IC50 thrombin
T7 construct: panel of serine proteases: uPA, tPA, thrombin, plasmin, FXIIa

[14] = tested on: post-colitis rats; experiment: post-colitis rat model for visceral pain, visceromotor response (VMR) to colorectal distension; conditions: post-colitis rats, 10 mg/kg
Protocol: Male Sprague-Dawley rats (200-225 g; Charles River, Italy) were used in all experiments. Rats were housed at a constant room temperature (22±2° C.) and humidity (60%). The animals had unlimited access to water and food and were kept on a 12 h:12 h day-night cycle. They were allowed to acclimatize for at least 1 week before the start of the experiments.
In this set-up, a mild colitis was induced in the post-colitis group on day 0, using a TNBS-enema. The control group received an intrarectal administration with 0.9% NaCl. The presence of colitis was verified by a colonoscopy on day 3. From day 10 onwards, a colonoscopy was performed every 4 days to follow-up the healing of the colonic mucosa. When the colonic mucosa was completely healed, further experiments were performed 3 days later. […] After the VMR measurement, the animals were sacrificed.
TNBS-colitis was induced at day 0 using a TNBS-enema (4 mg TNBS, 50% ethanol). […] Control animals received 0.25 ml 0.9% NaCl intrarectally. The animals were kept in a tail-up position during 1 min and were then allowed to recover in a Trendelenburg position.
Electromyographic (EMG) electrodes were implanted into the external abdominal muscle and 3 days later, the VMR experiment was performed in conscious rats. A lubricated balloon (length 5 cm) was introduced into the colorectum of the animal and connected to a barostat (Distender Series II Barostat, G&J Electronics, Canada). The EMG electrodes were attached to a data-acquisition system and a phasic distension protocol (10-20-30-40-60 mmHg, 20 s, 4 min interval) was sent through the barostat. […] The VMR was quantified using the area under the curve (AUC) of the EMG signal during the distension (20 s) corrected for the EMG signal before the distension (20 s).
22.0. The results of the VMR experiments analyzed using a Generalized Estimating Equations (GEE) test with Least Significant Difference (LSD) post-hoc test. A p-value<0.05 was considered as being statistically significant. The graphs were made with GraphPad Prism 6.0.
Visceral sensitivity was assessed using the visceromotor responses (VMRs) to a colorectal distension, shown in the graphs below as area under the curve (AUC; y-axis; μV.20 s-1) for each distension pressure (x-axis; mmHg). Serine proteases seem to play an important role in the pathogenesis of visceral pain.

Sequence of tryptase (Q15661 31-275): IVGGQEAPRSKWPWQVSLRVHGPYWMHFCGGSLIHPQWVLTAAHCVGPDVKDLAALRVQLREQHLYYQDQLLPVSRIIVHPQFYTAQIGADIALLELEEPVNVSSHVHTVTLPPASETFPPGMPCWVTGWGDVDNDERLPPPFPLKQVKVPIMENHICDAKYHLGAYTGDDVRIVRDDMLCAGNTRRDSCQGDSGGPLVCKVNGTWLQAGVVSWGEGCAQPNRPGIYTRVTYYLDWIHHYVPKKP
Sequence of KLK2 (P20151 25-261, species assumed): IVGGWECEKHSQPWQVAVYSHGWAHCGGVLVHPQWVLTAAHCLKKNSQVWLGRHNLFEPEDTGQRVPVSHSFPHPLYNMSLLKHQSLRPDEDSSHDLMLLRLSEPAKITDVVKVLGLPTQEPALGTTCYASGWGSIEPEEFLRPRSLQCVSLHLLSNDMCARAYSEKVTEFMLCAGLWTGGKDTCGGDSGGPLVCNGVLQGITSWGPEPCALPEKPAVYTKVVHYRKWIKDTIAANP
Sequence of tPA (P00750 36-562, species assumed): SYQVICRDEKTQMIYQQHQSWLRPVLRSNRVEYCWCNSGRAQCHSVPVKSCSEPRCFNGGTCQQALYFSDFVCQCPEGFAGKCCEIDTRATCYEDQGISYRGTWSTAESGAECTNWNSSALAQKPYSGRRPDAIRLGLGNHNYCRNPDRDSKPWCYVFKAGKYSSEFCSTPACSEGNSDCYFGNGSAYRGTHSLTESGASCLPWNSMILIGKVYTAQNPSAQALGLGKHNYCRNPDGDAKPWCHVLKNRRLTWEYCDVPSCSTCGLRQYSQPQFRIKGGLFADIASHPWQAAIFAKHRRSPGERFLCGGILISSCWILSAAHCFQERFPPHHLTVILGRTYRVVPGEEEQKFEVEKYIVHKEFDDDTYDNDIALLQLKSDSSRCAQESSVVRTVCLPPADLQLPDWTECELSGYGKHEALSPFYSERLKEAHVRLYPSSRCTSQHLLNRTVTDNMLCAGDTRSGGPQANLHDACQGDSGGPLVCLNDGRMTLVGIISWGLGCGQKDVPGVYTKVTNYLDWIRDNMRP
Sequence of KLK1 (P06870 25-262, species assumed): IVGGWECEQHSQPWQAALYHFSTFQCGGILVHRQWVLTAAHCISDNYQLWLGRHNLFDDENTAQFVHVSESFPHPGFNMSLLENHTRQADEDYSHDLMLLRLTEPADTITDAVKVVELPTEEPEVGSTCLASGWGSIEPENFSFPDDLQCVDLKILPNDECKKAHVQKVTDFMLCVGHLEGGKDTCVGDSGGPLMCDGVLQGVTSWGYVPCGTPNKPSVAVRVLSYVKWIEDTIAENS
Sequence of KLK4 (Q9Y5K2 31-254, species assumed): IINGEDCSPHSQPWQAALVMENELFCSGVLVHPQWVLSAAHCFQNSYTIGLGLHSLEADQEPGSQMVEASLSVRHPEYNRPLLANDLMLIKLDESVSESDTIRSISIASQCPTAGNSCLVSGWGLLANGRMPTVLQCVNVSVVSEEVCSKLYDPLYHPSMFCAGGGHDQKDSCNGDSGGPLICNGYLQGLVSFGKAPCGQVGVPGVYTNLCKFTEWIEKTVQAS
T2 sequence (P00747 581-810 limits assumed, species assumed): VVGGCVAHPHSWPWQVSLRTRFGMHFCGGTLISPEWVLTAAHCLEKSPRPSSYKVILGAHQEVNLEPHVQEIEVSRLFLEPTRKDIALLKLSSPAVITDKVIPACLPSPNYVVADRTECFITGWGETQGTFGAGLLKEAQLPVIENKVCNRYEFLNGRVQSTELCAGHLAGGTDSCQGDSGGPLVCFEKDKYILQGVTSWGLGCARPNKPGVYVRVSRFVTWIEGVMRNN
T2 sequence (P00747 97-580 partner limits assumed, species assumed): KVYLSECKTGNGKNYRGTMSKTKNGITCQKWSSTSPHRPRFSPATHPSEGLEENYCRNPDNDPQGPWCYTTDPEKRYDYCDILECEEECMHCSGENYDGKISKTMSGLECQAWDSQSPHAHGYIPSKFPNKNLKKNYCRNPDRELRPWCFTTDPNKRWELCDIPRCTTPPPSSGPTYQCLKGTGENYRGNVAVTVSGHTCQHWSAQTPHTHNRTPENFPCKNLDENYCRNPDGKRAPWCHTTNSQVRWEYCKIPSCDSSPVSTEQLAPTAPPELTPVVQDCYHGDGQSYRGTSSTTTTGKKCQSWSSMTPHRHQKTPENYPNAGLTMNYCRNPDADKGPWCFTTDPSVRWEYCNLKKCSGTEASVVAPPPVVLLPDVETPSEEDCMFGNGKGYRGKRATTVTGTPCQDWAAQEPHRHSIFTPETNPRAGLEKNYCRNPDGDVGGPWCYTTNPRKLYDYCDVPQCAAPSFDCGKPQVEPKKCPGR
T1 sequence (P00748 373-615 limits assumed, other chains not shown): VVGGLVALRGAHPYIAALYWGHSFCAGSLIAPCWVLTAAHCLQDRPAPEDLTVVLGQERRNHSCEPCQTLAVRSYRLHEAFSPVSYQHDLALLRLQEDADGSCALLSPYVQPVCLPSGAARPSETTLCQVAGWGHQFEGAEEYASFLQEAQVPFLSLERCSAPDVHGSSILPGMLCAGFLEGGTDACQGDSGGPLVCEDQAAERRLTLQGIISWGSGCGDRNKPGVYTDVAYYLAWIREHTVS

| SMILES | IC50 [2] | IC50 [3] | IC50 [4] | IC50 [5] | IC50 [6] | IC50 [8] | IC50 [10] | IC50 [11] | other results |
| --- | --- | --- | --- | --- | --- | --- | --- | --- | --- |
| COC(=O)NC(Cc1ccc(NC(=N)N)cc1)P(=O)(Oc1ccc(NC(C)=O)cc1)Oc1ccc(NC(C)=O)cc1 (centres unmarked) [Compound 2] | > 2500 nM | 13 nM | > 2500 nM | 3 nM | 315 nM | 8 nM | > 2500 nM | > 2500 nM | IC50 [1]: 3140 nM; IC50 [7]: 61 nM; IC50 [9]: 26 nM |
| N=C(N)Nc1ccc(CC(NC(=O)OCc2ccccc2)P(=O)(Oc2ccccc2)Oc2ccccc2)cc1 (centres unmarked) [Compound 3] | > 2500 nM | 42 nM | > 2500 nM | 83 nM | 90 nM | 150 nM | > 2500 nM | > 2500 nM | IC50 ([9]; read-out: IC50 KLK4): 12 nM |
| N=C(N)c1ccc2cc(OC(=O)c3ccc(N=C(N)N)cc3)ccc2c1 [Nafamostat] | – | – | – | – | – | – | – | – | IC50 [12]: < 1 nM; IC50 ([3]; read-out: IC50 KLK8): ~15 nM; IC50 ([4]; read-out: IC50 KLK1): ~1000 nM; IC50 ([5]; read-out: IC50 tryptase): < 1 nM; IC50 [13]: ~500000 nM; IC50 ([6]; read-out: IC50 KLK2): ~100 nM; effect on VMRs (visceral pain) [14]: no significant effect on visceral pain could be detected; IC50 ([10]; read-out: IC50 HNE): > 2500 nM; IC50 ([11]; read-out: IC50 tPA): > 2500 nM |
